From patent publication US20090143285A1, “TARGET PROTEIN AND TARGET GENE FOR DRUG DISCOVERY AND SCREENING METHOD” (REVERSE PROTEOMICS RESEARCH INSTITUTE CO., LTD., priority 2005, published 2009)
Numbering of substitutions follows the chain as printed. “Also recorded” adds a separate entry of the source. Blank lines part the entries; values can stand above or below the compound they belong to.

How the values were obtained:
[1] = tested on: FLJXXXXX-derived proteins; assay: SEC/MS spin column interaction analysis of FLJXXXXX-derived proteins and various compounds (Tables 30-1 to 30-4); format: binding, human; conditions: SEC spin column filtrate, spectral intensity increased with doses of compound and protein
FLJ25288-derived protein = biological target: T1, FLJ25288-derived protein (Homo sapiens, UniProt P09525, T85M); assay: SEC/MS interaction analysis, FLJ25288-derived protein (Annexin A4); format: binding; conditions: TSKgel super SW2000 micro-LC column (1.0 mm ID×30 mm); presence vs absence of protein; data not shown
T1 construct: His-tag (N); made in house; host or cells: Escherichia coli BL21star(DE3)pLysS
T1 sequence (P09525 1-321 isoform P09525-3 T87M): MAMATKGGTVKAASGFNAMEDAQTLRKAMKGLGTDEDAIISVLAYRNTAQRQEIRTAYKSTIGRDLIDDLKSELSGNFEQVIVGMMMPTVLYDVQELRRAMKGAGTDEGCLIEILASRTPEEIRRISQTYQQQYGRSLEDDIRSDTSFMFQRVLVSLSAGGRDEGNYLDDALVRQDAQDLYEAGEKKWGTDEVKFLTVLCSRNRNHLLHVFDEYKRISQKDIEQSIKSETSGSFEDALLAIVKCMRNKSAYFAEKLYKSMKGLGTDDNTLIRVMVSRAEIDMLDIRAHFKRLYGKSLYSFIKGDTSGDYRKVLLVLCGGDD
From the text: (§1) To analyze the interactions between commonly used drugs and proteins expressed from human full-length cDNA clones while keeping both the proteins and the compounds in non-modified, non-immobilized state, size exclusion chromatography (SEC) and mass analysis were used in combination. The specific procedures are shown below.
(§2) The compound-protein mixture prepared in step 1 was subjected to chromatography using an SEC column, the compound and the protein were separated by SEC, and the compound that interacted with the bound compound or protein contained in the protein fraction was analyzed using a mass analyzer.
(§3) Protein concentrations were measured using BCA Protein Assay (PIERCE), in consideration of the purity calculated by SDS-PAGE.
(§4) Mass analysis was performed using LCQ DECA XP (Thermoelectron) or Q-TOF micro (Micromass), equipped with an ESI probe. […]
(§5) In the 384-well spin column method, Unifilter 100 (Whatman), packed with 10 μL (dry volume) of Bio-Gel P6 (BIO-RAD) and swollen with milliQ water, was used as the SEC column. […] 2-μL of mass analysis samples were injected using an autosampler at 2-minute intervals; the mass spectral intensity of the compound was measured to retrieve the spectral intensity of the pharmaceutical compound contained in the SEC spin column filtrate (protein fraction eluted from SEC).

FLJ39553-derived protein = biological target: T2, FLJ39553-derived protein (Homo sapiens, UniProt Q6P6B1, N326S); assay: SEC/MS interaction analysis, FLJ39553-derived protein (hypothetical protein FLJ39553); format: binding; conditions: TSKgel super SW2000 micro-LC column (1.0 mm ID×30 mm); presence vs absence of protein; data not shown
T2 construct: His-tag (N); made in house; host or cells: Escherichia coli BL21star(DE3)pLysS
T2 sequence (Q6P6B1 1-374 N326S): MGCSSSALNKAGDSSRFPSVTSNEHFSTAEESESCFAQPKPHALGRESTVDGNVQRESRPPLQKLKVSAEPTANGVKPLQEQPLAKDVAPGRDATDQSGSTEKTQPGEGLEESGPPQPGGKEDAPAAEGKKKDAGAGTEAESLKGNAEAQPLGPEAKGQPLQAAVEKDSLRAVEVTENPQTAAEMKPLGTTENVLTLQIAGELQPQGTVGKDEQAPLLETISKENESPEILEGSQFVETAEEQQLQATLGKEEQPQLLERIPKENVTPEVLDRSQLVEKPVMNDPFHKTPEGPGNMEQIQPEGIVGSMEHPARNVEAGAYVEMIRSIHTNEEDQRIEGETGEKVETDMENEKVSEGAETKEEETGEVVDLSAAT
From the text: as §1, §2, §3, §4, §5

FLJ10537-derived protein = biological target: T3, FLJ10537-derived protein (Homo sapiens, UniProt Q9NR28); assay: SEC/MS interaction analysis, FLJ10537-derived protein (DIABLO homolog; SMAC); format: binding; conditions: TSKgel super SW2000 micro-LC column (1.0 mm ID×30 mm); presence vs absence of protein; data not shown
T3 construct: His-tag (N); made in house; host or cells: Escherichia coli BL21star(DE3)pLysS
T3 sequence (Q9NR28 1-186 isoform Q9NR28-2): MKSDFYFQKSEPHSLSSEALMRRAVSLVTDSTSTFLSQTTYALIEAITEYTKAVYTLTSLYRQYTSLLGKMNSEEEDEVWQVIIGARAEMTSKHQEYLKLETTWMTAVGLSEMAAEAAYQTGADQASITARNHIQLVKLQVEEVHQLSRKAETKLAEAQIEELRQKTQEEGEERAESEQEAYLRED
From the text: as §1, §2, §3, §4, §5

FLJ11211-derived protein = biological target: T4, FLJ11211-derived protein (Homo sapiens, UniProt Q9Y222, I712M); assay: SEC/MS interaction analysis, FLJ11211-derived protein (DMTF1; DMP1); format: binding; conditions: spin column method; mixture with protein vs buffer solution alone; data not shown
T4 construct: corresponds to a partial peptide of human DMP1 on the C-terminal side thereof (303 amino acid residues); His-tag (N); made in house; host or cells: Escherichia coli BL21star(DE3)pLysS
T4 sequence (Q9Y222 458-760 I712M): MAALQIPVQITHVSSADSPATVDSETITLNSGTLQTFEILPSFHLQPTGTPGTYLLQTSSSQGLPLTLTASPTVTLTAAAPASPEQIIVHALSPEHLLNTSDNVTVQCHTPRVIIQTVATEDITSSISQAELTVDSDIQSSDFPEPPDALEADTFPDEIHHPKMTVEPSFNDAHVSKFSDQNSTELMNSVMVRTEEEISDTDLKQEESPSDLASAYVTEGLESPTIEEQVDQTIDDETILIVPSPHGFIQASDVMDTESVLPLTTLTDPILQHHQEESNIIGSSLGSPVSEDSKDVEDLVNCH
From the text: as §1, §2, §3, §4, §5

FLJ41991-derived protein = biological target: T5, FLJ41991-derived protein (Homo sapiens, UniProt P57764, E293G); assay: SEC/MS interaction analysis, FLJ41991-derived protein (GSDMDC1); format: binding
T5 construct: His-tag (N); made in house; host or cells: Escherichia coli BL21star(DE3)pLysS (pDEST17)
T5 sequence (P57764 265-484 E293G): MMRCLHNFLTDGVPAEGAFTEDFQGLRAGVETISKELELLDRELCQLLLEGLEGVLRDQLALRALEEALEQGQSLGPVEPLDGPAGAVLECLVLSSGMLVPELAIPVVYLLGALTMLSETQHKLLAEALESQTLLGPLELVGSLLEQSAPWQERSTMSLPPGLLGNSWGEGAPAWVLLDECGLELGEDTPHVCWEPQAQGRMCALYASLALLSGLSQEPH
In short: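 Compound–protein mixtures separated by SEC (micro-LC column with 10 mM ammonium acetate mobile phase, or Bio-Gel P6 spin column) and analysed by ESI mass spectrometry. Interaction inferred from a protein-dependent shift in the compound's mass chromatogram, or from compound signal intensity in the eluted protein fraction.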

FLJ38897-derived protein = biological target: T6, FLJ38897-derived protein (Homo sapiens, UniProt P57764); assay: SEC/MS interaction analysis, FLJ38897-derived protein (GSDMDC1); format: binding; conditions: spin column method; mixture with protein vs buffer solution alone; data not shown
T6 construct: His-tag (N); made in house; host or cells: Escherichia coli BL21star(DE3)pLysS
T6 sequence (P57764 265-484): T5 sequence (P57764 265-484 E293G) with G29E
From the text: as §1, §2, §3
Mass analysis was performed using LCQ DECA XP (Thermoelectron) or Q-TOF micro (Micromass), equipped with an ESI probe. The LC pump used was Agilent 1100 (Yokogawa Analytical Systems), and the autosampler used was HTC-PAL (CTC Analytics) equipped with a cooling stacker. The SEC column used was a micro-LC column or a 384-well spin column. […]
In the 384-well spin column method, Unifilter 100 (Whatman), packed with 10 μL (dry volume) of Bio-Gel P6 (BIO-RAD) and swollen with milliQ water, was used as the SEC column. […] The SEC spin column was mounted on an acetonitrile-aliquoted 384-well U-bottom plate and centrifuged; the SEC spin column filtrate, which is a protein fraction, was recovered in 50% acetonitrile. The protein precipitate produced by the acetonitrile was removed via centrifugation and filtration for deproteinization; the resulting filtrate was concentrated by centrifugal concentration and re-dissolved in 10 μL of 50% methanol to obtain a mass analysis sample. The mobile phase supplied to the mass analyzer was 0.1% formic acid/50% methanol solution in the positive ion mode, and 0.1% ammonia/50% methanol solution in the negative ion mode; these mobile phases were used at a flow rate of 40 μL/min. 2-μL of mass analysis samples were injected using an autosampler at 2-minute intervals; the mass spectral intensity of the compound was measured to retrieve the spectral intensity of the pharmaceutical compound contained in the SEC spin column filtrate (protein fraction eluted from SEC).

FLJ22317-derived protein = biological target: T7, FLJ22317-derived protein (Homo sapiens, UniProt Q9NWV8); assay: SEC/MS interaction analysis, FLJ22317-derived protein (HSPC142 protein); format: binding; conditions: TSKgel super SW2000 micro-LC column (1.0 mm ID×30 mm); presence vs absence of protein; data not shown
T7 construct: His-tag (N); made in house; host or cells: Escherichia coli BL21star(DE3)pLysS
T7 sequence (Q9NWV8 whole entry): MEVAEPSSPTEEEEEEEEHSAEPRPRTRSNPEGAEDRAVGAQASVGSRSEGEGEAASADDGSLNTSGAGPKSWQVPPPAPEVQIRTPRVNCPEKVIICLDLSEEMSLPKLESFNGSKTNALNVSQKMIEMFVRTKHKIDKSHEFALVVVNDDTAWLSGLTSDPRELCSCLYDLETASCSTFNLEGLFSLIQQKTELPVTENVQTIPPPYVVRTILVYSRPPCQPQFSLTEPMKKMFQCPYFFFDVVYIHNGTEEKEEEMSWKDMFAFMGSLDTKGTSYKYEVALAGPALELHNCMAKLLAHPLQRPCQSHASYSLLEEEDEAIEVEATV
From the text: The specific procedures are shown below.

- interaction judged from mass chromatogram of the compound (elution from SEC micro-LC column) (FLJ25288-derived protein): there was an interaction
Compound: CN(Cc1cnc2nc(N)nc(N)c2n1)c1ccc(C(=O)N[C@@H](CCC(=O)O)C(=O)O)cc1 (racemic) [amethopterin (R, S), amethopterin]
- FLJ No of the derived protein with which the compound was judged to exhibit a concentration-dependent interaction [1]: FLJ25288

- interaction judged from mass chromatogram of the compound (elution from SEC micro-LC column) (FLJ39553-derived protein): there was an interaction
Compound: C[C@@H]1[C@H](O)[C@@H](C)/C=C/C=C/C=C/C=C/C=C/C=C/C=C/[C@H](O[C@@H]2O[C@H](C)[C@@H](O)[C@H](N)[C@@H]2O)C[C@@H]2O[C@](O)(C[C@@H](O)C[C@@H](O)[C@H](O)CC[C@@H](O)C[C@@H](O)CC(=O)O[C@H]1C)C[C@H](O)[C@H]2C(=O)O [amphotericin B]
- FLJ No of the derived protein with which the compound was judged to exhibit a concentration-dependent interaction [1]: FLJ39553

- interaction judged from mass chromatogram of the compound (elution from SEC micro-LC column) (FLJ10537-derived protein): there was an interaction
Compound: COc1c2occc2cc2ccc(=O)oc12 [methoxsalen]
- FLJ No of the derived protein with which the compound was judged to exhibit a concentration-dependent interaction [1]: FLJ10537

- interaction judged from mass spectrum peak intensity of the compound in the spin column filtrate (FLJ11211-derived protein): there was an interaction
- spectrum intensity of the compound in the SEC spin column filtrate (FLJ41991-derived protein; compound 12.5 μM, protein 0 μM): 26814
- spectrum intensity of the compound in the SEC spin column filtrate (FLJ41991-derived protein; compound 12.5 μM, protein 5 μM): 200843
- spectrum intensity of the compound in the SEC spin column filtrate (FLJ41991-derived protein; compound 12.5 μM, protein 10 μM): 376865
- spectrum intensity of the compound in the SEC spin column filtrate (FLJ41991-derived protein; compound 12.5 μM, protein 25 μM): 1734729
- spectrum intensity of the compound in the SEC spin column filtrate (FLJ41991-derived protein; compound 25 μM, protein 0 μM): 87636
- spectrum intensity of the compound in the SEC spin column filtrate (FLJ41991-derived protein; compound 25 μM, protein 5 μM): 311313
- spectrum intensity of the compound in the SEC spin column filtrate (FLJ41991-derived protein; compound 25 μM, protein 10 μM): 949465
- spectrum intensity of the compound in the SEC spin column filtrate (FLJ41991-derived protein; compound 25 μM, protein 25 μM): 4190413
- spectrum intensity of the compound in the SEC spin column filtrate (FLJ41991-derived protein; compound 62.5 μM, protein 0 μM): 231173
- spectrum intensity of the compound in the SEC spin column filtrate (FLJ41991-derived protein; compound 62.5 μM, protein 5 μM): 1759965
- spectrum intensity of the compound in the SEC spin column filtrate (FLJ41991-derived protein; compound 62.5 μM, protein 10 μM): 5619658
- spectrum intensity of the compound in the SEC spin column filtrate (FLJ41991-derived protein; compound 62.5 μM, protein 25 μM): 9678283
- interaction judged from spectrum intensity of the compound in the SEC spin column filtrate (protein fraction eluted from SEC) (FLJ41991-derived protein; spin column method, doses of both compound and protein varied): concentration-dependent interaction
- interaction judged from mass spectrum peak intensity of the compound in the spin column filtrate (FLJ38897-derived protein): an interaction was observed
Compound: CC(C)(C)c1ccc(C(O)CCCN2CCC(C(O)(c3ccccc3)c3ccccc3)CC2)cc1 (stereo not drawn) [terfenadine]
- FLJ No of the derived protein with which the compound was judged to exhibit a concentration-dependent interaction [1]: FLJ11211; also recorded: FLJ38897; also recorded: FLJ41991

Compound: solanine α
- FLJ No of the derived protein with which the compound was judged to exhibit a concentration-dependent interaction [1]: FLJ22317; also recorded: FLJ39553
- interaction judged from mass chromatogram of the compound (elution from SEC micro-LC column) (FLJ22317-derived protein): there was an interaction
